According to paper PMC6984732, “Thymidine phosphorylase and prostrate cancer cell proliferation inhibitory activities of synthetic 4-hydroxybenzohydrazides: In vitro, kinetic, and in silico studies” (PLoS ONE, 2020):
Like-named read-outs stand apart in the source and are kept apart here.

Tests used:
[1] = biological target: T1, thymidine phosphorylase (TP) (Escherichia coli, UniProt P07650); test: Thymidine phosphorylase inhibition assay (spectrophotometric, 290 nm); type: biochemical, E. coli; settings: for inhibition: read-out: Percent Inhibition of thymidine phosphorylase, 10 μL of test compound (0.5 mM in dimethylsulfoxide) per well; for inhibition / inhibition at 500 µM (stock): <50% regarded inactive; for inhibition at 500 µM (stock): 10 μL of test compound (0.5 mM in dimethylsulfoxide) per well, read-out: Percent Inhibition of thymidine phosphorylase; for IC50: recombinant TP expressed in E. coli, substrate thymidine, pH 7.0, 30°C, N.A. = not active, read-out: IC50 (μM ± SEM), thymidine phosphorylase inhibition
T1 construct: purchased Sigma Aldrich, USA; host or cells: E. coli
T1 sequence (P07650 whole entry): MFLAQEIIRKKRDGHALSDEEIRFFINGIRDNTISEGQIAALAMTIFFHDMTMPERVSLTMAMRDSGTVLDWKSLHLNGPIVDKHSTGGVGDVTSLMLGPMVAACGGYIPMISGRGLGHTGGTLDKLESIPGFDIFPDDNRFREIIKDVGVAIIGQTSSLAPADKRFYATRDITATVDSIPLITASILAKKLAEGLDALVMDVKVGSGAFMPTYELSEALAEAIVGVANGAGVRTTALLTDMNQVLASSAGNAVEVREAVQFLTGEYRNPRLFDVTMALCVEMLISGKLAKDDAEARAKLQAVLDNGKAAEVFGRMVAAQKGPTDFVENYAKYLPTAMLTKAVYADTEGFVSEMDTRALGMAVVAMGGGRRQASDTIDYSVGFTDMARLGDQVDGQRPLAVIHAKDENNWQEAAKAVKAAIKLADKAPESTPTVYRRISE
Protocol: Since human TP is not commercially available, we used commercially available recombinant TP (expressed in E. coli) enzyme. Primary sequence of TP is mostly conserved throughout the evolution and mammalian TP share 39% sequence similarity with TP of E. coli. The mammalian enzyme also shares 65–70% similarity with the active site residues of E. coli TP enzyme.
Assay for TP inhibition was performed spectrophotometrically, following the method of Bera et al. with some modifications. Enzyme TP catalyzed the reversible phosphorolysis of thymidine to thymine and 2-deoxyribose-1-phosphate. Reaction mixture contained 150 μL of potassium phosphate buffer (pH 7.0, 50 mM), 20 μL of enzyme (0.058 U/well), and 10 μL of test compound (0.5 mM in dimethylsulfoxide). The reaction mixture was incubated for 10 min at 30°C. 20 μL of substrate (1.5 mM) was then added and change in absorbance was recorded after every minute for a total time period of 10 minutes at 290 nm in ELISA plate reader (Spectra Max-340, Molecular Devices, CA, USA).
We have used the 96-well UV-plates, purchased from Corning (Catalogue No. COSTAR 3635, Lot No. 00912050). […] We then added the substrate (thymidine), and recorded the final readings.

[2] = biological target: T1, thymidine phosphorylase (TP); test: Kinetic studies on thymidine phosphorylase (Lineweaver-Burk, secondary re-plot, Dixon plot); type: biochemical, E. coli; settings: thymidine as variable substrate; for Inhibition Type: from Lineweaver-Burk plot
Protocol: Kinetic studies were carried out to identify the mechanism of inhibition by these compounds. Inhibitor could bind with the enzyme in multiple ways, such as in competitive, non-competitive, mixed or uncompetitive way. In kinetic assay, the enzyme (0.058 U/200 μL) was incubated with different concentrations of inhibitor for 10 min at 30°C. The reaction was then initiated by adding different concentrations (0.1875–1.5 mM) of substrate (thymidine), and the resulting degradation of thymidine was measured continuously at 290 nm for 10 min on ELISA plate reader. Every experiment was run in triplicate.
Lineweaver-Burk plot was plotted to determine the type of inhibition. This was accomplished by plotting the reciprocal of the rate of reaction against the reciprocal of the substrate concentration. Ki values were determined by secondary re-plot of Lineweaver-Burk plot, and reconfirmed by Dixon plot.

[3] = system: mouse fibroblast (3T3) cells; test: MTT anti-proliferative (cytotoxicity) assay, 3T3 cells; type: cell-based; settings: mouse fibroblast normal cell line, read-out: IC50 ± Standard Deviation, 3T3 Cell Line
Protocol: (§1) Anti-proliferative activity of active compounds was evaluated by using the standard MTT (3-[4,5-dimethylthiazole-2-yl]-2,5-diphenyl-tetrazolium bromide) colorimetric assay in 96-well plate.
(§2) It is a colorimetric assay that measures the reduction of MTT by mitochondrial enzyme i.e. succinate dehydrogenase. The MTT enters into the mitochondria of cell, where it is reduced to an insoluble formazan salt. As reduction of MTT can only occur in metabolically active cells, the level of activity is actually a measure of the viability of the cells.
(§3) Mouse fibroblast normal cell line 3T3, and prostate cancer line (PC3) were cultured separately in DMEM, supplemented with 5% of FBS, 100 IU/mL of penicillin and 100 μg/mL of streptomycin, and kept at 37°C in 5% CO2 incubator. For the preparation of cell culture, 100 μL/well of cell solution (5 x 10^4 cells/mL) was added into 96-well plate. The plate was incubated for overnight, and fresh medium was added after the removal of old medium. The test compounds were also added in different concentrations into the plate, and again incubated for 48 h. After the completion of this incubation period, 200 μL MTT (0.5 mg/mL) was added, and plate was again incubated for 4 h, after this final incubation, 100 μL of DMSO was added to each well. The level of MTT reduction to formazan was evaluated by change in absorbance at 540 nm for 3T3, and 570 nm for PC3 using a micro-plate reader (Spectra Max plus, Molecular Devices, CA, USA).

[4] = system: prostate cancer (PC3) cells; test: MTT anti-proliferative assay, PC3 cells; type: cell-based; settings: Homo sapiens, PC-3, 48 h incubation, prostate cancer cell line, read-out: IC50 ± Standard Deviation, PC3 Cell Line
Protocol: as §1, §2, §3

O=c1[nH]c(=O)c2cc[nH]c2[nH]1 [7-Deazaxanthine, reference compound]
inhibition [1]: 99%
Inhibition Type [2]: Non-competitive

O=C(N/N=C/c1ccccc1O)c1ccc(O)cc1 [Compound 1, 4-Hydroxyl-N'-[(E)-(2^′-hydroxylphenyl)methylidene]benzohydrazide]
inhibition [1]: 99.6%
IC50 ([3]; NIH3T3, 48 h incubation): 13.1 ± 0.3 µM
IC50 [4]: 7.5 ± 0.4 µM

O=C(N/N=C/c1cccc(O)c1O)c1ccc(O)cc1 [Compound 2, N'-[(E)-(2^′,3^′-Dihydroxylphenyl)methylidene]-4-hydroxylbenzohydrazide]
inhibition [1]: 99.9%
IC50 ([3]; NIH3T3, 48 h incubation): 23 ± 1 µM
IC50 [4]: 7.6 ± 0.4 µM

O=C(N/N=C/c1ccc(O)c(O)c1)c1ccc(O)cc1 [Compound 3, N'-[(E)-(3^′,4^′-Dihydroxylphenyl)methylidene]-4-hydroxylbenzohydrazide]
inhibition [1]: 99.3%
Inhibition Type [2]: Uncompetitive
IC50 ([3]; NIH3T3, 48 h incubation): 23.5 ± 1.1 µM
IC50 [4]: > 30 µM

O=C(N/N=C/c1c(O)cc(O)cc1O)c1ccc(O)cc1 [Compound 4, 4-Hydroxyl-N'-[(E)-(2^′,4^′,6^′-trihydroxylphenyl)methylidene]benzohydrazide]
inhibition at 500 µM (stock) [1]: 8%

O=C(N/N=C/c1ccc(O)c(O)c1O)c1ccc(O)cc1 [Compound 5, 4-Hydroxyl-N'-[(E)-(2^′,3^′,4^′-trihydroxylphenyl)methylidene]benzohydrazide]
inhibition at 500 µM (stock) [1]: 26%

O=C(N/N=C/c1cccc(O)c1)c1ccc(O)cc1 [Compound 6, 4-Hydroxyl-N'-[(E)-(3^′-hydroxylphenyl)methylidene]benzohydrazide]
inhibition [1]: 99%
IC50 ([3]; NIH3T3, 48 h incubation): > 30 µM
IC50 [4]: > 30 µM

O=C(N/N=C/c1cc(O)c(O)cc1O)c1ccc(O)cc1 [Compound 7, 4-Hydroxyl-N'-[(E)-(2^′,4^′,5^′-trihydroxylphenyl)methylidene]benzohydrazide]
inhibition [1]: 99%
IC50 ([3]; NIH3T3, 48 h incubation): 3.8 ± 0.4 µM
IC50 [4]: > 30 µM

O=C(N/N=C/c1ccc(O)cc1)c1ccc(O)cc1 [Compound 8, 4-Hydroxyl-N'-[(E)-(4^′-hydroxylphenyl)methylidene]benzohydrazide]
inhibition [1]: 99%
IC50 ([3]; NIH3T3, 48 h incubation): > 30 µM
IC50 [4]: > 30 µM

O=C(NN=Cc1ccc(Cl)cc1)c1ccc(O)cc1 [Compound 9, N'-[(E)-(4^′-Chlorophenyl)methylidene]-4-hydroxylbenzohydrazide]
inhibition [1]: 99%
IC50 [1]: 159 ± 0.4 µM
Inhibition Type [2]: Uncompetitive
Ki ([2]; secondary re-plot of Lineweaver-Burk plot, reconfirmed by Dixon plot, read-out: Ki (μM ± SEM)): 138 ± 0.009 µM
IC50 ([3]; NIH3T3, 48 h incubation): > 30 µM
IC50 [4]: > 30 µM

COc1ccc(/C=N/NC(=O)c2ccc(O)cc2)cc1 [Compound 10, 4-Hydroxyl-N'-{(E)-[4^′-(methoxy)phenyl]methylidene}benzohydrazide]
inhibition [1]: 99.8%
IC50 ([3]; NIH3T3, 48 h incubation): > 30 µM
IC50 [4]: > 30 µM

O=C(N/N=C/c1cccc(Cl)c1)c1ccc(O)cc1 [Compound 11, N'-[(E)-(3^′-Chlorophenyl)methylidene]-4-hydroxylbenzohydrazide]
inhibition [1]: 99%
IC50 ([3]; NIH3T3, 48 h incubation): > 30 µM
IC50 [4]: > 30 µM

COc1ccccc1/C=N/NC(=O)c1ccc(O)cc1 [Compound 12, 4-Hydroxyl-N'-{(E)-[2^′-(methoxy)phenyl]methylidene}benzohydrazide]
inhibition [1]: 99%
IC50 ([3]; NIH3T3, 48 h incubation): > 30 µM
IC50 [4]: > 30 µM

COc1ccc(/C=N/NC(=O)c2ccc(O)cc2)cc1OC [Compound 13, N'-{(E)-[3^′,4^′-Bis(methoxy)phenyl]methylidene}-4-hydroxylbenzohydrazide]
inhibition [1]: 99%
IC50 ([3]; NIH3T3, 48 h incubation): > 30 µM
IC50 [4]: > 30 µM

O=C(N/N=C/c1ccc(Br)cc1)c1ccc(O)cc1 [Compound 14, N'-[(E)-(4^′-Bromophenyl)methylidene]-4-hydroxylbenzohydrazide]
inhibition [1]: 96.6%
Inhibition Type [2]: Uncompetitive
IC50 ([3]; NIH3T3, 48 h incubation): > 30 µM
IC50 [4]: > 30 µM

O=C(N/N=C/c1ccc(Cl)cc1Cl)c1ccc(O)cc1 [Compound 15, N'-[(E)-(2^′,4^′-Dichlorophenyl)methylidene]-4-hydroxylbenzohydrazide]
inhibition at 500 µM (stock) [1]: 20%

Cc1ccccc1/C=N/NC(=O)c1ccc(O)cc1 [Compound 16, 4-Hydroxyl-N'-[(E)-(2^′-methylphenyl)methylidene]benzohydrazide]
inhibition [1]: 99%
IC50 ([3]; NIH3T3, 48 h incubation): > 30 µM
IC50 [4]: > 30 µM

COc1cccc(/C=N/NC(=O)c2ccc(O)cc2)c1O [Compound 19, 4-Hydroxyl-N'-[(E)-(2^′-hydroxyl-3^′-methoxyphenyl)methylidene]benzohydrazide]
inhibition [1]: 86.9%
IC50 [1]: 181.5 ± 1.6 µM
IC50 ([3]; NIH3T3, 48 h incubation): 23.6 ± 0.2 µM
IC50 [4]: 9.6 ± 0.3 µM

O=C(N/N=C/c1cc(Br)ccc1O)c1ccc(O)cc1 [Compound 20, N'-[(E)-(5^′-Bromo-2^′-hydroxylphenyl)methylidene]-4-hydroxylbenzohydrazide]
inhibition at 500 µM (stock) [1]: 38.6%

O=C(N/N=C/c1cc(Cl)ccc1O)c1ccc(O)cc1 [Compound 21, N'-[(E)-(5^′-Chloro-2^′-hydroxylphenyl)methylidene]-4-hydroxylbenzohydrazide]
inhibition [1]: 12.4%

COc1ccc(O)c(/C=N/NC(=O)c2ccc(O)cc2)c1 [Compound 23, 4-Hydroxyl-N'-{(E)-[2^′-hydroxyl-5^′-(methoxy)phenyl]methylidene}benzo-hydrazide]
inhibition [1]: 99.9%
IC50 ([3]; NIH3T3, 48 h incubation): 15.3 ± 0.9 µM
IC50 [4]: 10.5 ± 0.5 µM

CCOc1cccc(/C=N/NC(=O)c2ccc(O)cc2)c1O [Compound 24, N'-{(E)-[3^′-Ethoxy-2^′-hydroxylphenyl]methylidene}-4-hydroxylbenzohydrazide]
inhibition [1]: 82.4%
IC50 ([3]; NIH3T3, 48 h incubation): 9.4 ± 0.3 µM
IC50 [4]: 6.5 ± 0.2 µM

C/C(=N\NC(=O)c1ccc(O)cc1)c1ccccc1O [Compound 25, 4-Hydroxyl-N'-[(E)-1-(2^′-hydroxylphenyl)ethylidene]benzohydrazide]
inhibition [1]: 25%

C/C(=N\NC(=O)c1ccc(O)cc1)c1ccc(O)cc1O [Compound 26, N'-[(E)-1-(2^′,4^′-Dihydroxylphenyl)ethylidene]-4-hydroxylbenzohydrazide]
inhibition [1]: 30%

C/C(=N\NC(=O)c1ccc(O)cc1)c1cc(O)ccc1O [Compound 28, N'-[(E)-1-(2^′,5^′-Dihydroxylphenyl)ethylidene]-4-hydroxylbenzohydrazide]
inhibition [1]: 99.3%
IC50 ([3]; NIH3T3, 48 h incubation): 20.2 ± 0.9 µM
IC50 [4]: > 30 µM

C[C@@H]1C[C@@H]([C@H](O)CC2CC(=O)NC(=O)C2)C(=O)[C@@H](C)C1 [Cyclohexamide, cyclohexamide, reference compound]
IC50 ([3]; 48 h incubation): 0.26 ± 0.1 µM

COc1cccc2c1C(=O)c1c(O)c3c(c(O)c1C2=O)C[C@@](O)(C(=O)CO)C[C@@H]3O[C@H]1C[C@H](N)[C@H](O)[C@H](C)O1 [Doxorubicin, doxorubicin, reference compound]
IC50 [4]: 0.91 ± 0.1 µM

N=C1CCCN1Cc1nc(O)nc(O)c1Cl [tipiracil, reference compound]
inhibition [1]: 99%
